Source: PMC10392864, “Chukrasia tabularis limonoid plays anti-inflammatory role by regulating NF-κB signaling pathway in lipopolysaccharide-induced macrophages” (Food & Nutrition Research, 2023)
Several values for one entry are separate records, joined by “and”; a condition that tells them apart may be missing. Identical values can stand only once.

What was measured:
[1] = system: LPS-induced NO production in RAW264.7 cells; assay: LPS-induced NO production in RAW264.7 cells (Griess reaction); format: cell-based
Method: The inhibitory activities of compounds 1–16 on LPS stimulated macrophages was determined by Griess reaction. The NO content was detected by the NO kit according to the protocol described earlier ([23]). RAW264.7 cells obtained from the China Center for Cultivated Studies (Shanghai, China) were maintained in DMEM containing 10% FBS, and under 5% CO2 at 37°C. Briefly, the cells were seeded in a 96-well plate (1 × 10^5 cells/well), after 8 h of pre-incubation under 5% CO2 at 37°C, compounds 1–16 were added to the well plate, respectively, for 12 h. […] The supernatant of the cell culture were collected 24 h later.

RAW264.7 cells = assay: RAW264.7 cell viability, SRB assay; format: cell-based
Method: The cytotoxicity of limonin 2 to RAW264.7 cells was detected by SRB assay. […] Therefore, compound 2 of 0–20 μm was used in subsequent experiments to avoid the influence of cytotoxic and anti-inflammatory effect detection.
Fig. 2 Effect of compound 2 on RAW264.7 cells viability. RAW264.7 cells were treated by assigned concentration of compound 2 or DMSO for 24 h. The data are expressed as the mean ± SEM (n = 3). The cells viability (%) = (ODcompound 2 – ODDMSO)/ODDMSO ×100. *P < 0.05,**P < 0.01 compared with control cells treated by DMSO. Statistical differences were analyzed by unpaired t-test.

IL-6 = IL-6 production in LPS-induced macrophages, ELISA; format: cell-based; conditions: compound 2 at 2.3 and 9.2 μmol/L, LPS 1 μg/mL, 24 h, Fig. 3C
Method: (§1) After 8 h of pre-incubation under 5% CO2 at 37°C, limonin 2 was added to the well plate, respectively, for 12 h. Then the cell of administration group and model group were induced with LPS (2 µg/mL) and the control group was treated with DMSO as contrast. The cell supernatants of samples were collected to detect the content of IL-6 and TNF-α by ELISA according to manufacturer protocol. And the normal range of IL-6 and TNF-αELISA kits is 3.75–120 pg/mL and 20–640 pg/mL, respectively.
(§2) Fig. 3 Effects of compound 2 on the production of TNF-α, NO and IL-6 in LPS-induced macrophages. The macrophages were incubated with LPS (1 μg/mL) and treated with compound 2 (2.3 and 9.2 μmol/L) for 24 h. Indomethacin (INM) was used as the positive control. (A) The levels of TNF-α, (B) NO, and (C) IL-6 in the supernatant were assayed using ELISA kits. All values given are the mean ± SEM. *P <0.05, **P <0.01 compared with the LPS group.

TNF-α = TNF-α production in LPS-induced macrophages, ELISA; format: cell-based; conditions: compound 2 at 2.3 and 9.2 μmol/L, LPS 1 μg/mL, 24 h, Fig. 3A
Method: as §1, §2

NF-κB p-P65 = assay: Western blot, NF-κB p-P65 in LPS-treated macrophages; format: cell-based; conditions: Fig. 4
Method: (§3) Western blot analysis was performed to observe the activities of limonin 2 on NF-κB P65, JAK, STAT, IKBα, IKKα, iNOS and eNOS protein levels. Macrophages were dispersed in 6 well plates for 24 h. After incubation, the cells were processed by HFPS and treated with LPS for 24 h. After treatment, cells were harvested and lysed. Western blot analysis was based on the methods described previously ([24]).
(§4) The NF-κB signaling cascade plays an important role in the adjustment of inflammation ([43], [44]). The expression of NF-κB P65, IKB, and IKKα were measured by Western blot to investigate the anti-inflammatory mechanism of limonin 2. […] Limonin 2 inhibited the phosphorylation and degradation of IKBα (Fig. 4A, D and E) and IKKα (Fig. 4A, F and G).

IKBα = assay: Western blot, IKBα in LPS-treated macrophages; format: cell-based; conditions: Fig. 4
Method: as §3, §4

IKKα = assay: Western blot, IKKα in LPS-treated macrophages; format: cell-based; conditions: Fig. 4
Method: as §3, §4

JAK2 = assay: Western blot, JAK2 in LPS-treated macrophages; format: cell-based; conditions: LPS-treated RAW264.7 cells, Fig. 5
Method: as §3
(§5) To study the effect of limonin 2 on the STAT signaling cascades of LPS-treated macrophage, the levels of JAK2 and STAT3 was measured ([45]).

STAT3 = assay: Western blot, STAT3 in LPS-treated macrophages; format: cell-based; conditions: LPS-treated RAW264.7 cells, Fig. 5
Method: as §3, §5

iNOS = assay: Western blot, iNOS in LPS-treated macrophages; format: cell-based; conditions: Fig. 6
Method: as §3
(§6) To study the effect of limonin 2 on eNOS signaling cascade on LPS treated macrophages ([46]), the level of eNOS was measured. The upregulation of iNOS expression in LPS-treated macrophage was observed (Fig. 6A and B). Compound 2 inhibited the expression of iNOS stimulated by LPS in macrophage. At the same time, downregulation of eNOS protein expression was also found in LPS-stimulated macrophages (Fig. 6A and C).

eNOS = assay: Western blot, eNOS in LPS-treated macrophages; format: cell-based; conditions: LPS-stimulated macrophages, Fig. 6
Method: as §3, §6

[2] = Cytotoxicity, SRB method, Huh-7; format: cell-based, human; conditions: human, Huh-7 (hepatoma) cells
Method: (§7) Huh-7 (hepatoma), MCF-7 (human breast), KB (oral epithelial), Hela (cervical), H460 (lung), A-549 (lung), and HepG2 (hepatocellular) cancer cell lines (provided by Shanghai Cell Bank) were maintained in RPMI 1640 at 37 ℃, supplemented with 10% FBS. Cytotoxicity was determined by the SRB method, with 5-fluorouracil (5-FU) as a positive control. The IC50 value was calculated using the GraphPad prism program.

[3] = Cytotoxicity, SRB method, HepG2; format: cell-based, human; conditions: human, HepG2 (hepatocellular) cells
Method: as §7

[4] = Cytotoxicity, SRB method, KB; format: cell-based, human; conditions: human, KB (oral epithelial) cells
Method: as §7

[5] = Cytotoxicity, SRB method, H460; format: cell-based, human; conditions: human, H460 (lung) cells
Method: as §7

[6] = Cytotoxicity, SRB method, Hela; format: cell-based, human; conditions: human, Hela (cervical) cells
Method: as §7

[7] = Cytotoxicity, SRB method, A549; format: cell-based, human; conditions: human, A-549 (lung) cells
Method: as §7

[8] = Cytotoxicity, SRB method, MCF-7; format: cell-based, human; conditions: human, MCF-7 (human breast) cells
Method: as §7

## CCC(=O)OC1C2(O)C(OC(=O)C=CC(C)C)C3(C)CC24OC2(C)OC15C1CC(=O)OC(C6=CC(O)OC6=O)C1(C)CCC5(O2)C4(C)C3CC(=O)OC (centres unmarked) [Compound 2, Chukrasin F]
[1]; Mus musculus, RAW264.7 cells, LPS 2 µg/mL, supernatant after 24 h, read-out: IC50, inhibitory activity on LPS-induced NO production in RAW264.7 cells
  IC50: 4.58 ± 0.72 µM
[1]; compound 2 at 2.3 and 9.2 μmol/L, LPS 1 μg/mL, 24 h, Fig. 3B
  production of NO in LPS-treated macrophages (in words): notably inhibited
RAW264.7 cells; compound 2 at 0–20 μm, within 24 h
  viability of RAW264.7 cells (in words): not notably affected
RAW264.7 cells; limonin 2 at 5 ~ 200 μM (seven rising concentrations, not listed singly), 24 h, SRB
  relative survival rate of RAW264.7 cells: 100.7% and 96.3% and 93.9% and 88.0% and 76.4% and 64.4% and 56.7%
IL-6
  production of IL-6 in LPS-treated macrophages (in words): notably inhibited
TNF-α
  production of TNF-α in LPS-treated macrophages (in words): notably inhibited
NF-κB p-P65
  expression of NF-κB p-P65 (in words): downregulates
IKBα
  phosphorylation and degradation of IKBα (in words): inhibited
IKKα
  phosphorylation and degradation of IKKα (in words): inhibited
JAK2
  expression level of JAK2 (in words): notably reduced
STAT3
  expression level of STAT3 (in words): notably reduced
iNOS
  expression of iNOS stimulated by LPS (in words): inhibited
eNOS
  eNOS protein expression (in words): completely restored
[2]
  IC50: 72.1 ± 13.5 µM
[3]
  IC50: 69.4 ± 10.6 µM
[4]
  IC50: 39.2 ± 2.17 µM
[5]
  IC50: 60.8 ± 6.96 µM
[6]
  IC50: 33.2 ± 8.41 µM
[7]
  IC50: 54.7 ± 10.1 µM
[8]
  IC50: 23.4 ± 5.81 µM
